One series has as its system Subcutaneous CT-26. The experiment in a line: Imaging and tissue distribution, tumor model. It is filed as in vivo, Mouse xenograft. To be noted: Colorectal adenocarcinoma.
In series [1] the test system is animal tumor models. To be noted: radioiodinated analogs, xenograft and spontaneous tumor rodent models, previous reports; cited from earlier work.
A further series relates to Cervical. Briefly: Imaging and tissue distribution, tumor model. To be noted: Adenocarcinoma. It is filed as in vivo, Spontaneous Mouse.
In a further series the test system is Lung A-549 (NSCLC). The experiment in a line: Imaging and tissue distribution, tumor model. It is filed as in vivo, SCID Mouse. To be noted: Adenocarcinoma.
Series [2] relates to Pancreatic c-myc and kras. The experiment in a line: Imaging and tissue distribution, tumor model. It is filed as in vivo, Spontaneous mice. To be noted: Adenocarcinoma.
Excerpt: (§2) Imaging and tissue distribution studies performed in mouse models aimed at determining the uptake characteristics in a wide variety of tumor models are summarized in Table 1, below.
For a further series, the system named is Retinoblastoma. The experiment in a line: Imaging and tissue distribution, tumor model. Format: in vivo, Spontaneous Mouse. To be noted: Blastoma.
For series [3], the system named is mouse intestinal adenocarcinoma model. The experiment in a line: Therapeutic responses at imaging doses, aggressive intestinal model. Format: in vivo. The settings on record: 12 days following administration, ^125I-labeled. An excerpt: (§1) During the course of mouse tumor uptake and retention studies with “imaging” doses (15-20 μCi/20 g mouse) of ^125I-labeled NM404, several apparent therapeutic responses have been observed (unpublished results). […] Some of these animals also lost all hair above larger mammary tumors at around 8 days after injection. Moreover, these mice also get intestinal tumors and usually suffer from intestinal bleeding resulting in severe anemia, which renders their feet white. […] Another compelling example of tumor regression is illustrated in FIG. 13. Two litter mates each received SCC1 and SCC6 xenografts in their left and right flanks, respectively. One mouse received a single injection of ^125I-NM404 (20 μCi). […] These coincidental findings were reconfirmed in two separate age-matched groups each involving more than 6 mice.

In the next series the test system is Adenomatous Polyp. Briefly: Imaging and tissue distribution, tumor model. It is filed as in vivo, Spontaneous Mouse. The settings on record: Adenoma.
The subject of another series is Melanoma. Briefly: Imaging and tissue distribution, tumor model. Format: in vivo, Mouse xenograft. To be noted: Adenocarcinoma.
Series [4] deals with non-small cell lung cancer (NSCLC). The experiment in a line: Initial human pharmacokinetic evaluation, planar gamma-camera scintigraphy. Format: in vivo. The settings on record: relative to NM324. An excerpt: FIG. 6A-C images of lung cancer patient, posterior whole body planar nuclear medicine image (A) 4 days after iv administration of ^131I-NM404 (0.8 mCi) to a patient with non small cell lung cancer (6 cm dia., arrow). Lung tumor is easily detected in corresponding axial (B) and coronal (C) computed tomography (CT) scans;
In preparation for human clinical trials, unlabeled NM404 was subjected to independent (University of Buffalo Toxicology Research Center) acute toxicity evaluation at 1200 times the anticipated imaging mass dose in rats and rabbits. […] Due to its selective tumor uptake and retention properties in a variety of rodent tumor models and subsequent excellent safety profile in rats and rabbits, NM404 was selected to undergo initial human pharmacokinetic evaluation in non-small cell lung cancer (NSCLC) patients. Patients underwent planar gamma-camera scintigraphy after receiving an injection of ^131I-NM404 (<1 mCi).

In series [5] the test system is spontaneous murine lung tumors. Briefly: Bioscan imaging of spontaneous lung tumor. Format: in vivo, ApcMin mouse. To be noted: 125I-NM404, image 4 days post injection, 2 mm tumor.
The test system of series [6] is animal tumor models. Briefly: Imaging and biodistribution across animal tumor models (general statements). An excerpt:
See, for example, U.S. patent application Ser. Nos. 10/906,687, 11/177,740, 11/316,620 and 11/382,645. Due to deficiencies in metabolic phospholipase enzymes in the membranes of malignant tumor cells, the prevailing hypothesis for this specificity is that phospholipid ether analogs become trapped exclusively in tumor cell membranes because of their inability to become metabolized and eliminated by the cancerous cell. Thus, the differential clearance rates of phospholipid ethers from normal cells versus neoplastic tumor cells are responsible for this specificity.
The reason for the retention of PLE and analogs in cancer cells remains unknown. Without being held to any particular theory, however, the prevailing hypothesis, is that radioiodinated PLE and APC analogs become trapped in tumor cell membranes because of their inability to be metabolized and eliminated. On the other hand, such lipid molecules are metabolized and cleared by normal tissues, including the liver.
These PLE analogs are specifically designed to incorporate aromatic radioiodine in order to render the molecule stable towards in vivo deiodination.

For another series, the system named is Colon LS-180. The experiment in a line: Imaging and tissue distribution, tumor model. It is filed as in vivo, Nude Mouse. To be noted: Adenocarcinoma.
In the next series the test system is Min Mouse Intestinal. The experiment in a line: Imaging and tissue distribution, tumor model; therapeutic responses at imaging doses. Format: in vivo.
Excerpt: as §1

For the next series, the system named is Mammary Hyperplasia. The experiment in a line: Imaging and tissue distribution, tumor model. Format: in vivo, Endogenous Mouse. The settings on record: Alveolar Hyperplasia.

The structures appear in SMILES notation. “Also recorded” adds a separate entry of the source.

The values that follow come from patent US8022235B2, “Compositions of phospholipid ether boronic acids and esters and methods for their synthesis and use” (Cellectar, Inc., priority 2007, dated 2011).

Excerpt for Melanoma: as §2
Excerpt for Subcutaneous CT-26: as §2

As to `C[N+](C)(C)CCOP(=O)([O-])OCCCCCCCCCCCCCCCCCCc1ccc(I)cc1` [NM404, 18-(p-iodophenyl)-octadecyl phosphocholine], the Uptake entry in the series with Subcutaneous CT-26 is “Yes”; in the series on Cervical, “Yes”; with Lung A-549 (NSCLC), “Yes”; in series [2], “Yes”; with Retinoblastoma it was “Yes”; with Adenomatous Polyp, “No”. Also, the Uptake result with Melanoma is given as “Yes”; in the series on Colon LS-180, “Yes”; in the series on Min Mouse Intestinal (Adenocarcinoma), “Yes”; with Mammary Hyperplasia it was “No”. For the same compound, the “selective retention by tumors” value with animal tumor models [1] was “selectively retained by a variety of human and animal tumors”. Moreover, the “intestinal tumors at dissection” value in [3] is reported as “most, if not all, of the expected intestinal tumors were gone”. Moreover, in [4], the “liver and abdominal radioactivity levels” value is on record as “much lower”. Also, the “uptake / retention in tumor” value in series [5] is listed as “retained in spontaneous murine lung tumors; also recorded: intense uptake”. For the same compound, in the series on animal tumor models [6] (following administration), the “tumor concentrations over time” value is reported as “almost stable for many weeks”. For the same compound, in the series with animal tumor models [6] (in vivo), the “elimination from normal tissue” value is reported as “eliminated from normal tissue within a few days”. Moreover, the tumor retention result in the series on animal tumor models [6] (over 27 animal tumor models, every model and tumor type studied) is listed as “tumor-selective retention”. The tumor selectivity entry in the series with animal tumor models [6] (radioiodinated, 37 of 37 models investigated) was “remarkable tumor selectivity”. Besides, the “uptake into the tumor tissue” value in the series with animal tumor models [6] (up to) is recorded as 10-25 % of the injected dose. Besides, in the series with Min Mouse Intestinal (after 21 days, both intestinal models), the “survival vs untreated litter mates” value is “easily outlived their untreated litter mates”. Also, the “feet color (anemia from intestinal bleeding)” value in the series on Min Mouse Intestinal (around 5 days after a single injection, ^125I-labeled, 15-20 μCi/20 g mouse) was “reverted to a pink color”. Further, the “intestinal tumors remaining at dissection” value with Min Mouse Intestinal (of the expected 20 or so, ^125I-labeled, 15-20 μCi/20 g mouse) is given as “only a very few, if any”.
